According to BigSolDB 2.1:

Cn1[nH]c(=O)c(=O)[nH]c1=S
Settings | solubility (mole fraction)
in acetone, 293.25 K | 0.015
in acetone, 298.25 K | 0.0155
in acetone, 303.09 K | 0.016
in acetone, 308.05 K | 0.0168
in acetone, 312.79 K | 0.0178
in acetone, 318.03 K | 0.0186
in acetone, 323.07 K | 0.0199
in acetone, 327.37 K | 0.0209
in acetonitrile, 293.21 K | 0.00221
in acetonitrile, 298.23 K | 0.00248
in acetonitrile, 303.15 K | 0.00268
in acetonitrile, 308.11 K | 0.00299
in acetonitrile, 313.07 K | 0.00333
in acetonitrile, 317.95 K | 0.00375
in acetonitrile, 323.11 K | 0.0042
in acetonitrile, 328.13 K | 0.00463
in acetonitrile, 333.23 K | 0.00521
in acetonitrile, 338.17 K | 0.00585
in acetonitrile, 342.75 K | 0.00654
in ethanol, 293.23 K | 0.0125
in ethanol, 298.35 K | 0.014
in ethanol, 303.33 K | 0.0152
in ethanol, 308.29 K | 0.0169
in ethanol, 313.47 K | 0.0186
in ethanol, 318.47 K | 0.0205
in ethanol, 323.41 K | 0.0228
in ethanol, 328.23 K | 0.0255
in ethanol, 333.53 K | 0.0278
in ethanol, 338.63 K | 0.0307
in ethanol, 343.33 K | 0.0345
in ethyl acetate, 293.07 K | 0.00574
in ethyl acetate, 298.49 K | 0.00617
in ethyl acetate, 303.41 K | 0.00643
in ethyl acetate, 308.49 K | 0.00697
in ethyl acetate, 313.53 K | 0.00747
in ethyl acetate, 318.67 K | 0.00799
in ethyl acetate, 323.49 K | 0.0086
in ethyl acetate, 328.61 K | 0.00918
in ethyl acetate, 333.53 K | 0.00985
in ethyl acetate, 338.23 K | 0.0104
in ethyl acetate, 343.33 K | 0.0111
in isopropanol, 293.11 K | 0.00556
in isopropanol, 298.21 K | 0.00663
in isopropanol, 303.13 K | 0.00782
in isopropanol, 308.11 K | 0.00915
in isopropanol, 312.87 K | 0.0107
in isopropanol, 317.83 K | 0.0124
in isopropanol, 323.07 K | 0.0142
in isopropanol, 328.13 K | 0.0164
in isopropanol, 333.09 K | 0.0187
in isopropanol, 337.75 K | 0.0217
in isopropanol, 342.67 K | 0.0248
in n-butanol, 293.11 K | 0.00872
in n-butanol, 298.23 K | 0.00964
in n-butanol, 302.99 K | 0.0109
in n-butanol, 308.11 K | 0.0124
in n-butanol, 313.13 K | 0.0141
in n-butanol, 318.05 K | 0.0159
in n-butanol, 322.89 K | 0.0178
in n-butanol, 328.13 K | 0.02
in n-butanol, 333.39 K | 0.0224
in n-butanol, 338.07 K | 0.0255
in n-butanol, 343.23 K | 0.0288
in n-propanol, 292.99 K | 0.00859
in n-propanol, 298.33 K | 0.00959
in n-propanol, 303.23 K | 0.0108
in n-propanol, 308.23 K | 0.0122
in n-propanol, 313.15 K | 0.0139
in n-propanol, 318.23 K | 0.0157
in n-propanol, 323.23 K | 0.0176
in n-propanol, 328.47 K | 0.0198
in n-propanol, 333.07 K | 0.0223
in n-propanol, 338.33 K | 0.0251
in n-propanol, 343.35 K | 0.0286
in water, 293.23 K | 0.00139
in water, 298.15 K | 0.00158
in water, 302.93 K | 0.00187
in water, 312.93 K | 0.00263
in water, 317.65 K | 0.00306
in water, 322.85 K | 0.00366
in water, 327.77 K | 0.00438
in water, 332.83 K | 0.00522
in water, 337.35 K | 0.00623
in water, 342.47 K | 0.00748
